This is an account of results in patent US11572399B2, “Long-acting GIP peptide analogues” (University of Copenhagen, priority 2017, dated 2023).

Peptide text beside a SMILES is read from it. * marks the point of attachment. C16 diacid = O=C(O)CCCCCCCCCCCCCCC(=O)*

As a reminder, the IC50 is the concentration at which inhibition is half-maximal. Broadly, the Emax is the maximal effect, on the per cent scale that the assay sets. A word on the EC50: it is the concentration giving half of the maximal effect.

For test [1], the target named is T1, human GIP receptor (Homo sapiens, UniProt P48546).
T1 construct: host or cells: COS-7, transient transfection (calcium phosphate), cDNA in pCMV-Script
T1 sequence (P48546 22-466): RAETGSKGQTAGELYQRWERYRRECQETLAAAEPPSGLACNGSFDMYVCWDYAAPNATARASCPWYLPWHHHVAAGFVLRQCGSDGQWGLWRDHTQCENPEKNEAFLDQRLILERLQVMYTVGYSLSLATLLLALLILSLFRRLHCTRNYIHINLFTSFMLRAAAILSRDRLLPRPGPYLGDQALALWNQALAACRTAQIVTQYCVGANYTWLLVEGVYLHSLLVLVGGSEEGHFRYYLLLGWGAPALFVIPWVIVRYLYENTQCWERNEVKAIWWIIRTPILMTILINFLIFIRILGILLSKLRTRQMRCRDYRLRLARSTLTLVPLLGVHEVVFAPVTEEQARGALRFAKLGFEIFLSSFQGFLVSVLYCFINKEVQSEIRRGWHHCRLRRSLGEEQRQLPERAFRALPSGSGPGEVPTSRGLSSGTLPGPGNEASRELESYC
Nature of the test: cAMP accumulation assay, antagonism of a GIP-mediated cAMP response (50-80% of max). Type of test: cell-based. Conditions: transiently transfected COS-7 cells; Table 1 and text; read-out: cAMP antagonism nM (IC50, antagonistic potency). As for the experimental part: The day after, the cells were washed twice with Hepes buffered saline (HBS) buffer and incubated with HBS and 1 mM 3-isobutyl-1-methylxanthine (IBMX) for 30 min at 37° C. […] The HitHunter™ cAMP XS assay (DiscoveRx) was carried out according to the manufacturer's instructions.
(Cyclic AMP is a second messenger, typically raised through Gs and lowered through Gi signalling.)

Test [2] deals with T1, human GIP receptor. Put plainly: cAMP accumulation assay, agonism (ligand alone). The note with it: COS-7 cells, Table 1; for Emax: COS-7, intrinsic cAMP activity; for cAMP agonism Emax: intrinsic cAMP activity; for EC50: read-out: cAMP agonism nM (EC50). The format is cell-based.

Regarding `CC[C@H](C)[C@H](NC(=O)[C@H](CO)NC(=O)[C@H](Cc1ccc(O)cc1)NC(=O)[C@H](CC(=O)O)NC(=O)[C@H](CO)NC(=O)[C@@H](NC(=O)[C@H](CCCCNC(=O)CCCCCCCCCCCCCCC(=O)O)NC(=O)[C@@H](NC(=O)CNC(=O)[C@@H](N)CCC(=O)O)[C@@H](C)O)[C@@H](C)CC)C(=O)N[C@@H](C)C(=O)N[C@@H](CCSC)C(=O)N[C@@H](CC(=O)O)C(=O)N[C@@H](CCCCN)C(=O)N[C@H](C(=O)N[C@@H](Cc1c[nH]cn1)C(=O)N[C@@H](CCC(N)=O)C(=O)N[C@@H](CCC(N)=O)C(=O)N[C@@H](CC(=O)O)C(=O)N[C@@H](Cc1ccccc1)C(=O)N[C@H](C(=O)N[C@@H](CC(N)=O)C(=O)N[C@@H](Cc1c[nH]c2ccccc12)C(=O)N[C@@H](CC(C)C)C(=O)N[C@@H](CC(C)C)C(=O)N[C@@H](C)C(=O)N[C@@H](CCC(N)=O)C(=O)N[C@@H](CCCCN)C(N)=O)C(C)C)[C@@H](C)CC` [AT297, [hGIP(3-30)NH2[F6K]-C16diacid/6]], the concentration for half-maximal inhibition (IC50) in test [1] is 603 nM. In test [2], the Emax came out at 19%.
In the case of `CC[C@H](C)[C@H](NC(=O)[C@H](CO)NC(=O)[C@H](Cc1ccc(O)cc1)NC(=O)[C@H](CC(=O)O)NC(=O)[C@H](CO)NC(=O)[C@H](CCCCNC(=O)CCCCCCCCCCCCCCC(=O)O)NC(=O)[C@H](Cc1ccccc1)NC(=O)[C@@H](NC(=O)CNC(=O)[C@@H](N)CCC(=O)O)[C@@H](C)O)C(=O)N[C@@H](C)C(=O)N[C@@H](CCSC)C(=O)N[C@@H](CC(=O)O)C(=O)N[C@@H](CCCCN)C(=O)N[C@H](C(=O)N[C@@H](Cc1c[nH]cn1)C(=O)N[C@@H](CCC(N)=O)C(=O)N[C@@H](CCC(N)=O)C(=O)N[C@@H](CC(=O)O)C(=O)N[C@@H](Cc1ccccc1)C(=O)N[C@H](C(=O)N[C@@H](CC(N)=O)C(=O)N[C@@H](Cc1c[nH]c2ccccc12)C(=O)N[C@@H](CC(C)C)C(=O)N[C@@H](CC(C)C)C(=O)N[C@@H](C)C(=O)N[C@@H](CCC(N)=O)C(=O)N[C@@H](CCCCN)C(N)=O)C(C)C)[C@@H](C)CC` [AT298, [hGIP(3-30)NH2[I7K]-C16diacid/7]], in test [1], the IC50 came to 33 nM. Further, the “cAMP agonism Emax” value in test [2] was “no ag”.
Regarding `CC[C@H](C)[C@H](NC(=O)[C@H](CO)NC(=O)[C@H](Cc1ccc(O)cc1)NC(=O)[C@H](CC(=O)O)NC(=O)[C@H](CCCCNC(=O)CCCCCCCCCCCCCCC(=O)O)NC(=O)[C@@H](NC(=O)[C@H](Cc1ccccc1)NC(=O)[C@@H](NC(=O)CNC(=O)[C@@H](N)CCC(=O)O)[C@@H](C)O)[C@@H](C)CC)C(=O)N[C@@H](C)C(=O)N[C@@H](CCSC)C(=O)N[C@@H](CC(=O)O)C(=O)N[C@@H](CCCCN)C(=O)N[C@H](C(=O)N[C@@H](Cc1c[nH]cn1)C(=O)N[C@@H](CCC(N)=O)C(=O)N[C@@H](CCC(N)=O)C(=O)N[C@@H](CC(=O)O)C(=O)N[C@@H](Cc1ccccc1)C(=O)N[C@H](C(=O)N[C@@H](CC(N)=O)C(=O)N[C@@H](Cc1c[nH]c2ccccc12)C(=O)N[C@@H](CC(C)C)C(=O)N[C@@H](CC(C)C)C(=O)N[C@@H](C)C(=O)N[C@@H](CCC(N)=O)C(=O)N[C@@H](CCCCN)C(N)=O)C(C)C)[C@@H](C)CC` [AT299, [hGIP(3-30)NH2[S8K]-C16diacid/8]] (H-EGTFIK(C16 diacid)DYSIAMDKIHQQDFVNWLLAQK-NH2; N-terminus assumed), in test [1], the IC50 amounted to 199 nM. Besides, in test [2], the Emax was 15.2% and the EC50 came to 15 nM.
On to `CC[C@H](C)[C@H](NC(=O)[C@H](CO)NC(=O)[C@H](Cc1ccc(O)cc1)NC(=O)[C@H](CCCCNC(=O)CCCCCCCCCCCCCCC(=O)O)NC(=O)[C@H](CO)NC(=O)[C@@H](NC(=O)[C@H](Cc1ccccc1)NC(=O)[C@@H](NC(=O)CNC(=O)[C@@H](N)CCC(=O)O)[C@@H](C)O)[C@@H](C)CC)C(=O)N[C@@H](C)C(=O)N[C@@H](CCSC)C(=O)N[C@@H](CC(=O)O)C(=O)N[C@@H](CCCCN)C(=O)N[C@H](C(=O)N[C@@H](Cc1c[nH]cn1)C(=O)N[C@@H](CCC(N)=O)C(=O)N[C@@H](CCC(N)=O)C(=O)N[C@@H](CC(=O)O)C(=O)N[C@@H](Cc1ccccc1)C(=O)N[C@H](C(=O)N[C@@H](CC(N)=O)C(=O)N[C@@H](Cc1c[nH]c2ccccc12)C(=O)N[C@@H](CC(C)C)C(=O)N[C@@H](CC(C)C)C(=O)N[C@@H](C)C(=O)N[C@@H](CCC(N)=O)C(=O)N[C@@H](CCCCN)C(N)=O)C(C)C)[C@@H](C)CC` [AT300, [hGIP(3-30)NH2[D9K]-C16diacid/9]] (H-EGTFISK(C16 diacid)YSIAMDKIHQQDFVNWLLAQK-NH2; N-terminus assumed), for which, in test [1], the IC50 was 22 nM. Also, the “cAMP agonism Emax” value in test [2] is on record as “no ag”.
Take `CC[C@H](C)[C@H](NC(=O)[C@H](CCCCN)NC(=O)[C@H](CC(=O)O)NC(=O)[C@H](CCSC)NC(=O)[C@H](CCCCNC(=O)CCCCCCCCCCCCCCC(=O)O)NC(=O)[C@@H](NC(=O)[C@H](CO)NC(=O)[C@H](Cc1ccc(O)cc1)NC(=O)[C@H](CC(=O)O)NC(=O)[C@H](CO)NC(=O)[C@@H](NC(=O)[C@H](Cc1ccccc1)NC(=O)[C@@H](NC(=O)CNC(=O)[C@@H](N)CCC(=O)O)[C@@H](C)O)[C@@H](C)CC)[C@@H](C)CC)C(=O)N[C@@H](Cc1c[nH]cn1)C(=O)N[C@@H](CCC(N)=O)C(=O)N[C@@H](CCC(N)=O)C(=O)N[C@@H](CC(=O)O)C(=O)N[C@@H](Cc1ccccc1)C(=O)N[C@H](C(=O)N[C@@H](CC(N)=O)C(=O)N[C@@H](Cc1c[nH]c2ccccc12)C(=O)N[C@@H](CC(C)C)C(=O)N[C@@H](CC(C)C)C(=O)N[C@@H](C)C(=O)N[C@@H](CCC(N)=O)C(=O)N[C@@H](CCCCN)C(N)=O)C(C)C` [AT304, [hGIP(3-30)NH2[A13K]-C16diacid/13]] (H-EGTFISDYSIK(C16 diacid)MDKIHQQDFVNWLLAQK-NH2; N-terminus assumed): the IC50 in test [1] turned out to be 199 nM. For the same compound, the “cAMP agonism Emax” value in test [2] is “no ag”.
Take `CC[C@H](C)[C@H](NC(=O)[C@H](CO)NC(=O)[C@H](Cc1ccc(O)cc1)NC(=O)[C@H](CC(=O)O)NC(=O)[C@H](CO)NC(=O)[C@@H](NC(=O)[C@H](Cc1ccccc1)NC(=O)[C@@H](NC(=O)CNC(=O)[C@@H](N)CCC(=O)O)[C@@H](C)O)[C@@H](C)CC)C(=O)N[C@@H](C)C(=O)N[C@@H](CCCCNC(=O)CCCCCCCCCCCCCCC(=O)O)C(=O)N[C@@H](CC(=O)O)C(=O)N[C@@H](CCCCN)C(=O)N[C@H](C(=O)N[C@@H](Cc1c[nH]cn1)C(=O)N[C@@H](CCC(N)=O)C(=O)N[C@@H](CCC(N)=O)C(=O)N[C@@H](CC(=O)O)C(=O)N[C@@H](Cc1ccccc1)C(=O)N[C@H](C(=O)N[C@@H](CC(N)=O)C(=O)N[C@@H](Cc1c[nH]c2ccccc12)C(=O)N[C@@H](CC(C)C)C(=O)N[C@@H](CC(C)C)C(=O)N[C@@H](C)C(=O)N[C@@H](CCC(N)=O)C(=O)N[C@@H](CCCCN)C(N)=O)C(C)C)[C@@H](C)CC` [AT305, [hGIP(3-30)NH2[M14K]-C16diacid/14]] (H-EGTFISDYSIAK(C16 diacid)DKIHQQDFVNWLLAQK-NH2; N-terminus assumed): the IC50 in test [1] is 166 nM. Besides, in test [2], the Emax amounted to 12% and the EC50 came to 8 nM.
In the case of `CC[C@H](C)[C@H](NC(=O)[C@H](CO)NC(=O)[C@H](Cc1ccc(O)cc1)NC(=O)[C@H](CC(=O)O)NC(=O)[C@H](CO)NC(=O)[C@@H](NC(=O)[C@H](Cc1ccccc1)NC(=O)[C@@H](NC(=O)CNC(=O)[C@@H](N)CCC(=O)O)[C@@H](C)O)[C@@H](C)CC)C(=O)N[C@@H](C)C(=O)N[C@@H](CCSC)C(=O)N[C@@H](CCCCNC(=O)CCCCCCCCCCCCCCC(=O)O)C(=O)N[C@@H](CCCCN)C(=O)N[C@H](C(=O)N[C@@H](Cc1c[nH]cn1)C(=O)N[C@@H](CCC(N)=O)C(=O)N[C@@H](CCC(N)=O)C(=O)N[C@@H](CC(=O)O)C(=O)N[C@@H](Cc1ccccc1)C(=O)N[C@H](C(=O)N[C@@H](CC(N)=O)C(=O)N[C@@H](Cc1c[nH]c2ccccc12)C(=O)N[C@@H](CC(C)C)C(=O)N[C@@H](CC(C)C)C(=O)N[C@@H](C)C(=O)N[C@@H](CCC(N)=O)C(=O)N[C@@H](CCCCN)C(N)=O)C(C)C)[C@@H](C)CC` [AT306, [hGIP(3-30)NH2[D15K]-C16diacid/15]] (H-EGTFISDYSIAMK(C16 diacid)KIHQQDFVNWLLAQK-NH2; N-terminus assumed), the IC50 in test [1] is 53 nM. Besides, in test [2], the Emax was determined as 6.6% and the EC50 stood at 13 nM.
